Reference: paper PMC6294172 (Stem Cell Reports, 2018)

How the values were obtained:
JAK/STAT signals = settings: ref Liu et al., 2011; cited from earlier work
hiPS-SIECs monolayer [1] = test: LY and FD4 permeability tests across hiPS-SIECs monolayer; settings: treatment with C10, hiPS-SIECs monolayer
hiPS-SIECs monolayer [2] = test: TEER measurement of hiPS-SIECs monolayer; type: cell-based, human; settings: 10 mM C10, hiPS-SIECs monolayer
[3] = tested on: human iPSC (Tic)-derived definitive endoderm cells; test: CDX2 protein expression by western blotting; type: cell-based; settings: 4 days treatment
[4] = tested on: human iPSC-derived intestinal progenitor cells; test: Percentage of CDX2-positive cells by FACS analysis; type: cell-based; settings: LY2090314-treated cells
[5] = tested on: human iPSC (Tic)-derived definitive endoderm cells; test: Intestinal progenitor cell differentiation; type: cell-based; settings: 4 days
PEPT1 [6] = target: T1, PEPT1 (Homo sapiens, UniProt P46059); test: PEPT1 permeability test with glycylsarcosine across hiPS-SIECs monolayer; type: in vitro ADME; settings: apical to basolateral, 100 μM captopril
T1 sequence (P46059 1-708): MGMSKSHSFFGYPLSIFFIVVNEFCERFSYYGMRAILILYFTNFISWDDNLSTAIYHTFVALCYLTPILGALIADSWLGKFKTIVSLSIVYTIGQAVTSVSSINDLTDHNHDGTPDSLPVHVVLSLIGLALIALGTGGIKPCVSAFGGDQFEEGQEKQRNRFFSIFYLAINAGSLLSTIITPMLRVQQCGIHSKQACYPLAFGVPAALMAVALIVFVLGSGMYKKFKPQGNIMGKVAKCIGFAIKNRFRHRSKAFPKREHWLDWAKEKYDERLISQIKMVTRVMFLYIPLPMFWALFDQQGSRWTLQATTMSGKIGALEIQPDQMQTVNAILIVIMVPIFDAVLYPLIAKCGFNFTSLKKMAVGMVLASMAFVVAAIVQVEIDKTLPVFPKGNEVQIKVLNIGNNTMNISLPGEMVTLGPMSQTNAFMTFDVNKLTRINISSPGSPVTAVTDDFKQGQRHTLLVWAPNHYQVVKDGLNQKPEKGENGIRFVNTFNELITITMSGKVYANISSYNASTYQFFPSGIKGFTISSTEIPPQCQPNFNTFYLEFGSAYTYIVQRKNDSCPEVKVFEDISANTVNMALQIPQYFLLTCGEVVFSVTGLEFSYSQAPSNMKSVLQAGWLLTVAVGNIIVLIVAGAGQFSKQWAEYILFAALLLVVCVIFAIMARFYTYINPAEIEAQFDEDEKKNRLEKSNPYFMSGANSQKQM

PEPT1 [7] = target: T1, PEPT1; test: Peptide-uptake analysis of D-Ala-Leu-Lys-AMCA in hiPS-SIECs; type: cell-based; settings: 100 μM captopril, 25 μM D-Ala-Leu-Lys-AMCA for 4 hr
[8] = tested on: neonatal rat small intestinal epithelial cells; settings: ref Booth et al., 1995; Leeper et al., 1998; McDonald and Henning, 1992; cited from earlier work
CES2 = target: T2, CES2 (Homo sapiens, UniProt O00748); test: CES2 activity in hiPS-SIECs with fluorescein diacetate substrate; settings: 1 mM loperamide, 10 μM fluorescein diacetate substrate
T2 sequence (O00748 27-559): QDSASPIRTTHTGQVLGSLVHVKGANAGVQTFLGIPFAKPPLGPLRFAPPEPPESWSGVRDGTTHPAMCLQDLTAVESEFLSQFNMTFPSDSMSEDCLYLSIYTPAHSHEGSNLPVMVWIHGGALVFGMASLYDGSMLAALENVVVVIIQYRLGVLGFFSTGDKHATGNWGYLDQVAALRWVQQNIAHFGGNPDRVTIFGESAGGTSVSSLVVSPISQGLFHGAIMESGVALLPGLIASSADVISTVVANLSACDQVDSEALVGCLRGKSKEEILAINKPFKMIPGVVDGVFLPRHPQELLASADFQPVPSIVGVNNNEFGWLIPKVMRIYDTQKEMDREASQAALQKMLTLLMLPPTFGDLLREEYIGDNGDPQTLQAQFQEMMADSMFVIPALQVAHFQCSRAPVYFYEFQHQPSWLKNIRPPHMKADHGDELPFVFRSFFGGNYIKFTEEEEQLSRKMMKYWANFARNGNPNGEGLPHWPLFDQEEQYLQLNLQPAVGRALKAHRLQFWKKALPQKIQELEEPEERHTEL

[9] = tested on: small intestinal epithelial cells; settings: ref Booth et al., 1995; Leeper et al., 1998; McDonald and Henning, 1992; cited from earlier work
[10] = 20 nM, compared with definitive endoderm cells (DECs)

O=C1Nc2cc(Br)ccc2/C1=C1/Nc2ccccc2/C1=N\O [BIO, (2′Z,3′E)-6-bromoindirubin-3′-oxime]
effect on JAK/STAT signals (off-target) (JAK/STAT signals): inhibition

CCCCCCCCCC(=O)O [C10, capric acid]
FD4 apparent membrane permeability coefficient (Papp) (hiPS-SIECs monolayer [1]): increased | LY apparent membrane permeability coefficient (Papp) (hiPS-SIECs monolayer [1]): increased | TEER value (hiPS-SIECs monolayer [2]): significantly decreased

O=C1NC(=O)C(c2cnc3ccccn23)=C1c1cn2c3c(cc(F)cc13)CN(C(=O)N1CCCCC1)CC2 [LY2090314]
CDX2 protein expression level [3]: increased | percentage of CDX2-positive cells (FACS) [4]: approximately 50% | expression level of hepatic progenitor marker AFP [5, 10]: lower | expression level of intestinal progenitor cell marker CDX2 [5, 10]: increased | expression level of pancreatic progenitor cell marker PDX1 [5, 10]: lower | expression levels of CDX2, concentration dependence ([5]; 1-20 nM, relative to DMSO-treated cells): increased in a concentration-dependent manner

C=C1/C(=C\C=C2/CCC[C@]3(C)[C@@H]([C@H](C)CCCC(C)(C)O)CC[C@@H]23)C[C@@H](O)C[C@@H]1O [VD3, 1α,25-dihydroxyvitamin D3]
CYP3A4 expression levels (CYP3A4): increased

C[C@H](CS)C(=O)N1CCC[C@H]1C(=O)O [captopril]
Papp value of glycylsarcosine (PEPT1 [6]): significantly decreased | uptake of D-Ala-Leu-Lys-AMCA in presence of inhibitor (PEPT1 [7]): inhibited

C[C@@H]1C[C@H]2[C@@H]3CCC4=CC(=O)C=C[C@]4(C)[C@@]3(F)[C@@H](O)C[C@]2(C)[C@@]1(O)C(=O)CO [dexamethasone]
maturation in neonatal rat small intestinal epithelial cells [8]: promotes

CN(C)C(=O)C(CCN1CCC(O)(c2ccc(Cl)cc2)CC1)(c1ccccc1)c1ccccc1 [loperamide]
CES2 activity in the hiPS-SIECs (CES2): significantly inhibited

IGF-1: insulin-like growth factor 1, used at 20 ng/mL
proliferation of small intestinal epithelial cells [9]: promotes
